Assay results: patent US7704990B2, “Agents for preventing and treating disorders involving modulation of the RyR receptors” (The Trustees of Columbia University in the City of New York, priority 2005, dated 2010)

What was measured:
soleus muscle = assay: Soleus muscle fatigue time in mice with heart failure from myocardial infarction; assay type: in vivo, mouse
Source text: Soleus muscles from JTV519-treated wild-type mice or calstabin2^−/− mice with heart failure from myocardial infarction are more resistant to fatigue (P<0.05) compared to placebo-treated mice. After completion of treatment, soleus muscle was dissected and mounted in a tissue bath to assess isolated skeletal muscle function. Representative 50% of maximal tetanic force fatigue time tracings are shown for wild-type and calstabin2^−/− mice, treated with JTV519 or placebo, in embodiment A. In embodiment B are shown bar graph summarizing mean time to fatigue.

RyR1 [1] = target: T1, RyR1 (Mus musculus, UniProt E9PZQ0); assay: Single-channel recordings of RyR1 from soleus muscle of mdx mice; assay type: biochemical; settings: 1.0 μM JTV-519, cytoplasmic Ca2+ 150 nM, vs untreated wild-type
T1 construct: single channel current trace of RyR1 from soleus muscle of control (wild-type) mouse; from tissue; host or cells: skeletal (soleus) muscle of mdx mice or of wild-type mice with heart failure
Source text: Embodiments A and B are, respectively, a single channel current trace and an amplitude histogram of RyR1 from soleus muscle of a control (wild-type) mouse under resting conditions. Embodiments C and D are, respectively, a single channel current trace and an amplitude histogram of RyR1 from soleus muscle of an mdx mouse.
In FIG. 11, channel openings are represented as upward deflections; ‘c’ indicates the closed state; and 4 pA current open amplitude is indicated by dash. Upper traces represent 5 secs and lower traces 500 ms; dotted lines indicate subconductance states.
Increased Po in mdx mice is consistent with intracellular Ca^2+ leak. The amplitude histograms in embodiments B, D, and F show multiple subconductance states consistent with calstabin1 (FKBP12) depletion in RyR1 from mdx soleus muscle.

RyR1 / calstabin1 = target: T2, RyR1 / calstabin1 (Mus musculus, UniProt E9PZQ0); assay: RyR1 PKA phosphorylation and calstabin1 bound to RyR1 in soleus muscle of heart failure mice; assay type: in vivo
T2 construct: increase of calstabin1 in the RyR1 complex in soleus muscles in vivo; from tissue; host or cells: soleus muscle of wild-type and calstabin2-/- mice with post-infarction heart failure
T2 sequence (E9PZQ0 whole entry): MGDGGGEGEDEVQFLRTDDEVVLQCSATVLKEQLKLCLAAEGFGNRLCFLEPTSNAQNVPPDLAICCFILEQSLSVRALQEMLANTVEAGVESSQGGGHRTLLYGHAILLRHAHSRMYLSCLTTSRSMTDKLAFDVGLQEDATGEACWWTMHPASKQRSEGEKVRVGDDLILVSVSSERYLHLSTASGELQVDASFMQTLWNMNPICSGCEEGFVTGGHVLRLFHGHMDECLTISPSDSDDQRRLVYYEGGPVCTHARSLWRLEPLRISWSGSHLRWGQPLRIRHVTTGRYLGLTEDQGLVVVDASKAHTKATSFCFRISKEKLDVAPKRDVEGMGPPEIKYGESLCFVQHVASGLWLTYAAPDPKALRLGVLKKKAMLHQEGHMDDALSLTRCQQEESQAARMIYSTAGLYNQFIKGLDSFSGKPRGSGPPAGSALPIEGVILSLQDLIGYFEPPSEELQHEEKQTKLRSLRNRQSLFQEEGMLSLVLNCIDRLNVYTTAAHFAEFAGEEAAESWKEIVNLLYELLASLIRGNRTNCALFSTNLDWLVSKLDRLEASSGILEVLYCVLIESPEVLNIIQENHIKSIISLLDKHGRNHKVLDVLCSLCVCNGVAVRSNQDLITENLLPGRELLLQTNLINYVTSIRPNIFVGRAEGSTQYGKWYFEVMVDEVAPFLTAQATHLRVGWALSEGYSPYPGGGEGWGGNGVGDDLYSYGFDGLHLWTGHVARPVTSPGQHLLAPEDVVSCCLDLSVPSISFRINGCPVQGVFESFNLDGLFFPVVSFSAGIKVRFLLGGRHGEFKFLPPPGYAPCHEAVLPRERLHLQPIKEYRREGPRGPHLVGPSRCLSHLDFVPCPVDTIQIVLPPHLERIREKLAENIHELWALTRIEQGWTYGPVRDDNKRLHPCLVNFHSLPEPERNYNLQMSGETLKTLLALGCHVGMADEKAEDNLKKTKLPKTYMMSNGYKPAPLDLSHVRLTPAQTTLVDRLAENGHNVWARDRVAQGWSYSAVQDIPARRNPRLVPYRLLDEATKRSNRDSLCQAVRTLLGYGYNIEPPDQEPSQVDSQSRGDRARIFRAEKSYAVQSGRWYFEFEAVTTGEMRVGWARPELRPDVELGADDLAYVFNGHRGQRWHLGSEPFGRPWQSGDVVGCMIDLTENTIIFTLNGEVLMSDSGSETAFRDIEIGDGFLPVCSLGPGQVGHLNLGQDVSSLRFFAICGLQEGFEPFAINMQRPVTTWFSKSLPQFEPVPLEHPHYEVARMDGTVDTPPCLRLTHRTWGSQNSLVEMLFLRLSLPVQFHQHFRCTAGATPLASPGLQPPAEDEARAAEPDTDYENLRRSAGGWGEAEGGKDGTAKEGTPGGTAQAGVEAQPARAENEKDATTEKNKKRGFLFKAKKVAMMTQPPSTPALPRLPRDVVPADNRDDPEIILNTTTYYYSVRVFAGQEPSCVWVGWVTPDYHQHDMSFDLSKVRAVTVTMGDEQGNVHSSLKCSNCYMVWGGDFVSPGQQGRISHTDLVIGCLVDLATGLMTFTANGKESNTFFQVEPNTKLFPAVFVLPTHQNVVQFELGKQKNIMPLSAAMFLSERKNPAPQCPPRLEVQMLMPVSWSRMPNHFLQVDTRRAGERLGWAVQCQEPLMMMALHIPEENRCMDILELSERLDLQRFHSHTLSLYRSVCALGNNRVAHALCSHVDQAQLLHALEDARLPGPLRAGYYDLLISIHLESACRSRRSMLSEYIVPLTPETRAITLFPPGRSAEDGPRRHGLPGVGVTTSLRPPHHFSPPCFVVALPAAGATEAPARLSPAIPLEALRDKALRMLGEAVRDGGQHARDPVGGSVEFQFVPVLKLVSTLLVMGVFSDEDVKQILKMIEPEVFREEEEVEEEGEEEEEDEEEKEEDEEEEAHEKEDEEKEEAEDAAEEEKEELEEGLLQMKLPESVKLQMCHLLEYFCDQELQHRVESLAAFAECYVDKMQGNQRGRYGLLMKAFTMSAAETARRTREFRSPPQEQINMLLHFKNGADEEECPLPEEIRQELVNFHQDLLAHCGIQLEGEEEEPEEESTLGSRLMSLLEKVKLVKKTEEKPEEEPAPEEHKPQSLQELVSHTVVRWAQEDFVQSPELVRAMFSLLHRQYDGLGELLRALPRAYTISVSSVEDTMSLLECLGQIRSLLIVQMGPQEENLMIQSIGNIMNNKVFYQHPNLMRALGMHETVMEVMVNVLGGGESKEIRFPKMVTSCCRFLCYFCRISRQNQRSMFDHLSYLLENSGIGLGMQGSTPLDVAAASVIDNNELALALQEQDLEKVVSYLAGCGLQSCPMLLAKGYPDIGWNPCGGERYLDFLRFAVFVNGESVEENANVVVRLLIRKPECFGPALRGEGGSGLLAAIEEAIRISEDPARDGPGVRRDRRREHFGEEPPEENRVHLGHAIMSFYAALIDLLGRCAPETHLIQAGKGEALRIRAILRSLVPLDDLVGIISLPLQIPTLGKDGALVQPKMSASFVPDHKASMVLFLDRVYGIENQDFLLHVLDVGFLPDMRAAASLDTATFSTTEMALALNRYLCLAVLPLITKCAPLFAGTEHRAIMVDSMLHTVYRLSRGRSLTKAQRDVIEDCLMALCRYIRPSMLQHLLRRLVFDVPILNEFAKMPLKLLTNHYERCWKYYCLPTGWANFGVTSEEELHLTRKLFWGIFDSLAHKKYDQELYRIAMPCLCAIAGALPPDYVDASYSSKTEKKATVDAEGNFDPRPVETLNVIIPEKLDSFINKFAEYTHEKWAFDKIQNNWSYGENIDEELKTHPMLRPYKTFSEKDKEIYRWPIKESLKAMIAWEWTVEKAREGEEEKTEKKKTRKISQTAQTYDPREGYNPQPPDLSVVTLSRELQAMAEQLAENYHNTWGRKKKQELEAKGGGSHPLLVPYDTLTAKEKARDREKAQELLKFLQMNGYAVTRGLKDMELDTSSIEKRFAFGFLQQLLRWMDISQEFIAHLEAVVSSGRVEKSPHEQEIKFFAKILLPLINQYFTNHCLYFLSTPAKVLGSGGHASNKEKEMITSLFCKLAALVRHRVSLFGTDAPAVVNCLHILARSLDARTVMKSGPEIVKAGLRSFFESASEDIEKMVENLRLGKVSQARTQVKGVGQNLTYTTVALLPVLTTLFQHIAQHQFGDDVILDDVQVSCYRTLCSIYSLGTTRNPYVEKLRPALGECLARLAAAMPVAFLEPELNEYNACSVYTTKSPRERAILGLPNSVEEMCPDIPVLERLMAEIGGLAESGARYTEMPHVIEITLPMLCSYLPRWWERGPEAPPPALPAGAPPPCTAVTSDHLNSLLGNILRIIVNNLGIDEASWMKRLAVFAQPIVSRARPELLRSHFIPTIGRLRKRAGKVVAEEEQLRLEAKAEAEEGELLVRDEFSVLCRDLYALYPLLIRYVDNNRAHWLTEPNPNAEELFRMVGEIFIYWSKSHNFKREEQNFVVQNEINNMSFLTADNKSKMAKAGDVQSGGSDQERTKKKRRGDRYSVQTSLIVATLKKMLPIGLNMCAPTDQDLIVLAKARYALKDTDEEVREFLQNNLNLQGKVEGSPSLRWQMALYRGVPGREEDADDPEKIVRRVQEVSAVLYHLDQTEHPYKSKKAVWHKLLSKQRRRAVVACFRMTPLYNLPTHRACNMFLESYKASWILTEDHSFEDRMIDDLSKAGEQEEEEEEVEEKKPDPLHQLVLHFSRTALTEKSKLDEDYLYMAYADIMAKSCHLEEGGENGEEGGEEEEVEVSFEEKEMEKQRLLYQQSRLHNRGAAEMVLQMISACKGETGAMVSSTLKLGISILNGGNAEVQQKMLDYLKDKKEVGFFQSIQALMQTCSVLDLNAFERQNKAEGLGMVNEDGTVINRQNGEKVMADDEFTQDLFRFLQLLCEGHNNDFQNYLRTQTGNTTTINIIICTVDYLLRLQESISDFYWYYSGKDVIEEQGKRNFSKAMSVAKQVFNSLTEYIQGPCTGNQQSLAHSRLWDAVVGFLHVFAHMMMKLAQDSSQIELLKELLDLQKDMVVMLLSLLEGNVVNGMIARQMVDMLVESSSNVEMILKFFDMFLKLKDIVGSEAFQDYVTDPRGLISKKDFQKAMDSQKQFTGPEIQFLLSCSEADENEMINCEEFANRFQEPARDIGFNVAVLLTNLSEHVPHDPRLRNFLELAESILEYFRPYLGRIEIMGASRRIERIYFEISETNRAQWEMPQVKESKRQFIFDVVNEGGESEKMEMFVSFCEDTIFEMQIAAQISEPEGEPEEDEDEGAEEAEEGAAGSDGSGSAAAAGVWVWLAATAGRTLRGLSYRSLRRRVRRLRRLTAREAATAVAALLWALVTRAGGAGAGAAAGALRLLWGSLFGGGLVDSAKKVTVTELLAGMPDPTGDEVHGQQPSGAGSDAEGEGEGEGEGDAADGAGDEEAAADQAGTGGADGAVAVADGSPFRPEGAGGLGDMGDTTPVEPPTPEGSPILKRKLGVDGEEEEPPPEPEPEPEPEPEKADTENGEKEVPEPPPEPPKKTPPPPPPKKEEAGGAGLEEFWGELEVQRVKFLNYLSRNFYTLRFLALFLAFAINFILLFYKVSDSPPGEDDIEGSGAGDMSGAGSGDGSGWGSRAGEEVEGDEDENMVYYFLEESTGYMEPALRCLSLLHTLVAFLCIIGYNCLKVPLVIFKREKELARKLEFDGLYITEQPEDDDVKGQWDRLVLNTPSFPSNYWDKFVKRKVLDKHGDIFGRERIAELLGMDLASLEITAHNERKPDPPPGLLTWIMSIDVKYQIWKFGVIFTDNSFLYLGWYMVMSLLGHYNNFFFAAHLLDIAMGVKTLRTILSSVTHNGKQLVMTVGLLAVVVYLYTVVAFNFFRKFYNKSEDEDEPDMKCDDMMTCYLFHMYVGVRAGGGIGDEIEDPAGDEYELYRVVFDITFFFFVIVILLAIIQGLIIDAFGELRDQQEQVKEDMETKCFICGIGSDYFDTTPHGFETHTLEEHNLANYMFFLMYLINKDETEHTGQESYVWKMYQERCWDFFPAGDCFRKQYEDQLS
T2 sequence (P26883 whole entry partner): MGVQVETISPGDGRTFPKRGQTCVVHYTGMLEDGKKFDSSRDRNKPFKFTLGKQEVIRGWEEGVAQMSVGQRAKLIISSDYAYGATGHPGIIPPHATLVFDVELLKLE
Description: Embodiment A are bar graphs of PKA phosphorylation of RyR1 at Ser-2844 in mice, which corresponds to Ser-2843 in humans.
Equivalent amounts of RyR1 were immunoprecipitated with an antibody against RyR1. Embodiment A are bar graphs show the amount of PKA phosphorylation of RyR1 at Ser-2844 in mice (corresponding to human Ser-2843). […] Embodiment B are bar graphs showing the amount of calstabin1 bound to RyR1 from wild-type or calstabin2^−/− mice treated with JTV519 or placebo. Mice were treated with JTV519 by implantable osmotic minipumps using a dose of 0.5 mg/kg/day.

RyR1 [2] = target: T1, RyR1; assay: RyR1 single-channel tracings from skeletal muscle of heart failure mice treated in vivo; settings: mice with heart failure and increased muscle fatigue, 150 nM cytoplasmic Ca2+
Source text: Embodiments A and C are single channel current traces of wild-type mice with heart failure treated with placebo (A) and JTV-519 (C). Embodiments B and D are amplitude histograms for wild-type mice with heart failure treated with placebo (B) and JTV-519 (D).
For the amplitude histograms in embodiment B and D, amplitude is represented on the x axis, and events indicates the number of channel openings. Po, To and Tc values correspond to the representative traces. Treatment as indicated on top of traces.

[3] = target: PKA phosphorylated RyR1 / calstabin1 (Homo sapiens, UniProt P21817); assay: Calstabin1 binding to immunoprecipitated PKA phosphorylated skeletal RyR1 at increasing JTV519 concentrations
Source text: Sediment represents only calstabin bound to RyR.

## COc1ccc2c(c1)CN(C(=O)CCN1CCC(Cc3ccccc3)CC1)CCS2.Cl [JTV-519, 4-[3-(4-benzylpiperidin-1-yl)propionyl]-7-methoxy-2,3,4,5-tetrahydro-1,4-benzothiazepine monohydrochloride]
Soleus muscle; calstabin2-/- knockout mice with heart failure
  soleus muscle fatigue times: significantly improved
Soleus muscle; wild-type mice with heart failure, vs placebo
  soleus muscle fatigue times: improved soleus muscle fatigue times
RyR1 [1]
  RyR1 channel activity: normal activity
RyR1 / calstabin1; wild-type and calstabin2-/- mice, implantable osmotic minipumps, 0.5 mg/kg/day
  calstabin1 in the RyR1 complex in soleus muscle: highly significant increase
RyR1 / calstabin1; wild-type animals
  RyR1 PKA phosphorylation at Ser-2844: significant decrease
RyR1 [2]
  RyR1 channel gating in skeletal muscle: normalized
[3]; relative to non-PKA phosphorylated RyR1
  binding affinity of calstabin1 for PKA phosphorylated RyR1: restored
[3]; skeletal RyR1 with calstabin1, immunoblotting
  concentration that increased the binding affinity of calstabin for RyR: ≥ 50 nM
FKBP12.6+/- mice; 0.5 mg/kg per hour for 7 days, implanted osmotic mini-pump
  resting heart rate or other ECG parameters: no effect
FKBP12.6+/- mice; FKBP12.6+/- mice, exercise testing and 0.5 mg/kg epinephrine
  plasma levels that prevent cardiac arrhythmias and sudden cardiac death: 1 µM
FKBP12.6+/- mice; haploinsufficient calstabin (FKBP12.6)+/- mice
  exercise-induced ventricular arrhythmias: prevention
